Test systems include A549 NSCLC; ACHN renal; EKVX NSCLC; HS 578T breast; NCI-H522 lung; OVCAR-8 ovarian; U251 CNS; A498 renal; SK-MEL-2 melanoma; LOX IMVI melanoma.
What all share (assay): NCI-60 cell line screen, 48 h

Consider 24 compounds from PubChem BioAssay (NCI).

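Step 1: Grow cells in 96-well plates. Step 2: Expose to compound for 48 hours at 5 concentrations. Step 3: Interpolate endpoints linearly; if unreached, use highest concentration. At the TGI there is no net growth.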

As for `O=C(CN=C(CN(c1ccccc1)c1ccccc1)Oc1c([N+](=O)[O-])cc([N+](=O)[O-])cc1[N+](=O)[O-])N1CCNCC1`, the TGI with A549 NSCLC, with ACHN renal, with EKVX NSCLC, in the test on HS 578T breast, with NCI-H522 lung and with OVCAR-8 ovarian was over 100 µM each time. Also, the TGI in the test with U251 CNS was over 100 µM.

With `OCC1CCCCN1Cc1nc2ccc(Cl)cc2[nH]1` (stereo not given), the TGI with A498 renal, in the test with A549 NSCLC, in the test on ACHN renal, in the test with EKVX NSCLC, in the test with HS 578T breast and with NCI-H522 lung was over 100 µM in each case. Further, the TGI in the test on OVCAR-8 ovarian, in the test with SK-MEL-2 melanoma and in the test with U251 CNS was over 100 µM throughout.

Turning to `O=C(/C=C/c1ccc(Cl)c(Cl)c1)CCN1CCN(CCC(=O)/C=C/c2ccc(Cl)c(Cl)c2)CC1`, the TGI in the test with A498 renal is over 100 µM; in the test with A549 NSCLC, over 100 µM; in the test on ACHN renal, 34.5 µM; in the test with EKVX NSCLC it was over 100 µM; in the test on LOX IMVI melanoma it was 33.7 µM; in the test with NCI-H522 lung it was 31.6 µM. Besides, the TGI in the test with OVCAR-8 ovarian is over 100 µM; in the test with SK-MEL-2 melanoma it was 92.6 µM; in the test on U251 CNS, 49.2 µM.

For the compound `N#Cc1nc(Cc2ccccc2)oc1N`, the TGI with A549 NSCLC, with ACHN renal, in the test on EKVX NSCLC, with HS 578T breast, in the test on LOX IMVI melanoma and in the test on SK-MEL-2 melanoma was over 100 µM each time. Besides, the TGI in the test with U251 CNS is over 100 µM.

For `Cc1ccc(-c2c(C#N)c(S)n(NS(=O)(=O)c3ccccc3)c(=O)c2C#N)cc1`, the TGI was over 100 µM with A498 renal; over 100 µM in the test on A549 NSCLC; 82 µM with ACHN renal; over 100 µM in the test on EKVX NSCLC; over 100 µM with LOX IMVI melanoma; 52.3 µM in the test on NCI-H522 lung. For the same compound, the TGI is 55.9 µM with OVCAR-8 ovarian, over 100 µM with SK-MEL-2 melanoma and 83.5 µM in the test on U251 CNS.

Turning to `c1ccc(-c2cc(-c3cc(-c4ccccc4)n[nH]3)[nH]n2)cc1`, the TGI with A498 renal, in the test on A549 NSCLC, with ACHN renal, in the test with EKVX NSCLC, in the test with HS 578T breast and in the test with NCI-H522 lung was over 100 µM in each case. The TGI in the test with OVCAR-8 ovarian, in the test on SK-MEL-2 melanoma and in the test on U251 CNS was over 100 µM each time.

As for `CSc1nc(-c2cc3c(c(SC)n2)CCC3)cc2c1CCC2`, the TGI with A498 renal, with A549 NSCLC, with ACHN renal, in the test on EKVX NSCLC, in the test with NCI-H522 lung and in the test on OVCAR-8 ovarian was over 100 µM in each case. The TGI with SK-MEL-2 melanoma and in the test with U251 CNS was over 100 µM in each case.

`O=C(c1ccc(Cl)cc1)N(C(=S)N1CCN(c2ccccc2)CC1)c1ccccc1`: the TGI in the test with A549 NSCLC, with ACHN renal, in the test with LOX IMVI melanoma, in the test on NCI-H522 lung, in the test with OVCAR-8 ovarian and with SK-MEL-2 melanoma was over 100 µM throughout. In addition, the TGI in the test with U251 CNS is over 100 µM.

`CCCC(=O)N[C@@H](Cc1cc(I)c(O)c(I)c1)C(=O)NCCCNCCCCNCCCNC(=O)[C@@H](N)CCCN=C(N)N`: the TGI in the test with A549 NSCLC, with ACHN renal, in the test on EKVX NSCLC, in the test on LOX IMVI melanoma, with NCI-H522 lung and in the test with OVCAR-8 ovarian was over 100 µM in each case. The TGI with U251 CNS is over 100 µM.

Turning to `CC1CSc2nc3[nH]c(=S)[nH]c3c(=O)n2C1` (stereo not given), the TGI in the test with A498 renal, with A549 NSCLC, with ACHN renal, in the test on EKVX NSCLC, in the test on LOX IMVI melanoma and with OVCAR-8 ovarian was over 100 µM throughout. Further, in the test on U251 CNS, the TGI is over 100 µM.

On to `C=C(Br)C(Cl)(CBr)CCC(Br)C(C)(C)Cl` (stereo not given), for which the TGI in the test on A498 renal, in the test with A549 NSCLC, in the test on ACHN renal, in the test on EKVX NSCLC, in the test with NCI-H522 lung and with OVCAR-8 ovarian was over 10 µM in each case. Also, the TGI in the test on SK-MEL-2 melanoma and in the test with U251 CNS was over 10 µM each time.

Consider `Cc1[nH]n(-c2nc(O)c(C)c(=O)[nH]2)c(=O)c1CCO`, for which the TGI in the test on A498 renal, in the test with A549 NSCLC, in the test on ACHN renal, in the test on EKVX NSCLC, in the test on HS 578T breast and in the test with NCI-H522 lung was over 100 µM throughout. The TGI in the test on OVCAR-8 ovarian, with SK-MEL-2 melanoma and with U251 CNS was over 100 µM each time.

Turning to `CCCN(CCC)C(=O)Cc1c2n(c3ccccc13)Cc1ccccc1-2`, the TGI in the test on A549 NSCLC, with ACHN renal, with EKVX NSCLC, with LOX IMVI melanoma, in the test with NCI-H522 lung and in the test on OVCAR-8 ovarian was over 100 µM in each case. Besides, the TGI with SK-MEL-2 melanoma and in the test on U251 CNS was over 100 µM throughout.

Regarding `COc1ccc(/C=N/n2c(Cc3ccc(Cl)cc3)n[nH]c2=O)cc1`, the TGI in the test with A498 renal was over 100 µM; with A549 NSCLC, over 100 µM; in the test on ACHN renal, over 100 µM; in the test with EKVX NSCLC it was over 100 µM; with OVCAR-8 ovarian, 74.6 µM; with SK-MEL-2 melanoma, 61.5 µM. Further, the TGI in the test with U251 CNS was determined as 33.6 µM.

As for `Cc1ccc(NC(=S)NNC(=O)c2cc(-c3ccccc3)nc3ccccc23)cc1C`, the TGI was 34.2 µM in the test on A498 renal; 43.7 µM in the test on A549 NSCLC; 67.6 µM with ACHN renal; over 100 µM with HS 578T breast; 50.8 µM with NCI-H522 lung; 44.5 µM in the test on OVCAR-8 ovarian. Besides, the TGI was found to be 37.3 µM in the test with SK-MEL-2 melanoma and 49.4 µM in the test with U251 CNS.

Take `COC(=O)c1cc(C)ccc1CC(Cc1ccccc1C)C(=O)OC` (stereo not given): the TGI is over 100 µM in the test with A498 renal; over 100 µM in the test on A549 NSCLC; over 100 µM in the test with ACHN renal; 76.3 µM with EKVX NSCLC; over 100 µM in the test on HS 578T breast; 28.1 µM in the test with LOX IMVI melanoma. The values for the TGI with NCI-H522 lung and in the test on OVCAR-8 ovarian were 74.1 µM and over 100 µM, respectively.

For `O=C(O)c1cc2c(cc1S(=O)(=O)O)C1C(C3C2C2(Cl)C(Cl)=C(Cl)C3(Cl)C2(Cl)Cl)C2(Cl)C(Cl)=C(Cl)C1(Cl)C2(Cl)Cl` (stereo not given), the TGI in the test with A498 renal is over 100 µM; with A549 NSCLC, over 100 µM; in the test on ACHN renal, over 100 µM; in the test with EKVX NSCLC, over 100 µM; with HS 578T breast it was over 100 µM; in the test on NCI-H522 lung it was 46.8 µM. The TGI in the test with OVCAR-8 ovarian is over 100 µM; with SK-MEL-2 melanoma, 73.4 µM; with U251 CNS, over 100 µM.

With `Cc1ccc(NNc2cc(=O)[nH]c(=O)[nH]2)cc1Cl`, the TGI in the test with A498 renal is over 100 µM; with A549 NSCLC, over 100 µM; in the test with ACHN renal, 21.4 µM; with HS 578T breast it was over 100 µM; with LOX IMVI melanoma it was 18.4 µM; in the test on NCI-H522 lung, 32.8 µM. For the same compound, the TGI in the test on SK-MEL-2 melanoma came to 30.9 µM; in the test with U251 CNS, 30 µM.

For the compound `Cn1c2c(c3ccccc31)CC(=O)N1CCCCC1C21OCCO1` (stereo not given), the TGI in the test with A498 renal, in the test on A549 NSCLC, in the test with ACHN renal, in the test with EKVX NSCLC, in the test on HS 578T breast and in the test with OVCAR-8 ovarian was over 100 µM in each case. Also, the TGI in the test with SK-MEL-2 melanoma and in the test on U251 CNS was over 100 µM each time.

Take `O/N=C1\CC2(N3CCOCC3)CCC1(Cc1ccccc1)CC2`: the TGI in the test on A498 renal was 88.9 µM; in the test on A549 NSCLC, over 100 µM; with ACHN renal, 63.4 µM; in the test on EKVX NSCLC, over 100 µM; with LOX IMVI melanoma, over 100 µM; in the test with NCI-H522 lung, over 100 µM. Further, the TGI in the test on OVCAR-8 ovarian is 48.1 µM; in the test with SK-MEL-2 melanoma, 85 µM; in the test on U251 CNS, 38.3 µM.

As for `CCOC(=O)c1ccc(Nc2nc3ccc(C(F)(F)F)cc3nc2-c2ccccc2)cc1`, the TGI in the test with A549 NSCLC, in the test with ACHN renal, with EKVX NSCLC, in the test with HS 578T breast, with LOX IMVI melanoma and in the test on NCI-H522 lung was over 100 µM each time. In addition, the TGI in the test on OVCAR-8 ovarian and in the test on U251 CNS was over 100 µM each time.

For the compound `CCOC(=O)c1c(NC(=O)c2ccccc2)sc2c1CCC2`, the TGI in the test on A498 renal, in the test with A549 NSCLC, in the test on ACHN renal, in the test with EKVX NSCLC, with HS 578T breast and with OVCAR-8 ovarian was over 100 µM each time. In the test with SK-MEL-2 melanoma, this compound displayed a TGI of over 100 µM.

Consider `Cc1ccc(S(=O)(=O)OCC23CCC(C4CC42)C2CC23)cc1` (stereo not given), for which the TGI in the test with A498 renal, with A549 NSCLC, with ACHN renal, in the test with LOX IMVI melanoma, in the test with OVCAR-8 ovarian and in the test on U251 CNS was over 100 µM throughout.

With `O=S(=O)(NC(c1ccccc1)(c1cc2ccccc2[nH]1)c1cc2ccccc2n1S(=O)(=O)c1ccccc1)c1ccccc1` (stereo not given), the TGI in the test with A498 renal, with A549 NSCLC, in the test with EKVX NSCLC, with HS 578T breast, with LOX IMVI melanoma and in the test on OVCAR-8 ovarian was over 100 µM throughout. The TGI in the test on SK-MEL-2 melanoma and in the test with U251 CNS was over 100 µM throughout.
